Measured values: US8722849B2, “Polypeptides” (Novo Nordisk A/S, priority 2011, dated 2014)
Read-outs that look alike come from different tables or passages of the source. Starred links: 1 amine or outer side, 2 acyl side, 3 side chain; linkers in the order of their positions; H or OH if unused. Positions of bridges follow the written chain, without caps; N, C: chain ends. Residues, ends and D or L forms follow the SMILES beside them. *: point of attachment. C20 diacid = O=C(O)CCCCCCCCCCCCCCCCCCC(=O)*; C18 diacid = O=C(O)CCCCCCCCCCCCCCCCC(=O)*; γGlu = O=C(O)[C@H](CCC(=O)[*:2])N[*:1]

What was measured:
[1] = molecular target: T1, rat calcitonin (a) receptor (Rattus norvegicus, UniProt P32214); experiment: Assay (II)b functional cAMP FlashPlate assay, rat calcitonin receptor; assay type: cell-based; details: Table 11; read-out: CTa receptor rat EC50
T1 construct: expressed in transfected cells; host or cells: BHK tk'ts 13
T1 sequence (P32214 25-479 isoform P32214-2 limits assumed): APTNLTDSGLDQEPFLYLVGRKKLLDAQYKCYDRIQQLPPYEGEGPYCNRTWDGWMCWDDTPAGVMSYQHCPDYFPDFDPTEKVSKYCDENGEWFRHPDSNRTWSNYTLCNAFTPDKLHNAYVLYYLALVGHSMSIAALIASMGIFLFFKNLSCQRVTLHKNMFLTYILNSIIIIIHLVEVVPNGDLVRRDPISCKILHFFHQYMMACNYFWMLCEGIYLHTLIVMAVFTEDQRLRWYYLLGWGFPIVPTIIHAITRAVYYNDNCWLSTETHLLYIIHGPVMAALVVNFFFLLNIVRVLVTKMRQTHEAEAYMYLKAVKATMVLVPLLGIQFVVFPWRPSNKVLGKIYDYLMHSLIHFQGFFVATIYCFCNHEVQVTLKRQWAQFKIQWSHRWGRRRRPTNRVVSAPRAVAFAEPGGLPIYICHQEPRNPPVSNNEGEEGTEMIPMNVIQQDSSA
Summary of the method: (§1)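 cAMP accumulation in transiently transfected BHK tk'ts 13 cells, 100.000 cells/well, expressing rat calcitonin(a) receptor or its RAMP3 co-expression form (amylin 3(a)): 30 min stimulation with IBMX, 24 hours post-transfection. Readout by competition of cellular versus radiolabelled cAMP in FlashPlates, scintillation counted after 3 h.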

[2] = molecular target: T2, human calcitonin receptor (Homo sapiens, UniProt P30988); experiment: Assay (II)a functional CRE-luciferase assay, human calcitonin receptor; assay type: cell-based; details: Table 7; human calcitonin (CTa) receptor
T2 construct: expressed in transfected cells; host or cells: BHK570
T2 sequence (P30988 25-474): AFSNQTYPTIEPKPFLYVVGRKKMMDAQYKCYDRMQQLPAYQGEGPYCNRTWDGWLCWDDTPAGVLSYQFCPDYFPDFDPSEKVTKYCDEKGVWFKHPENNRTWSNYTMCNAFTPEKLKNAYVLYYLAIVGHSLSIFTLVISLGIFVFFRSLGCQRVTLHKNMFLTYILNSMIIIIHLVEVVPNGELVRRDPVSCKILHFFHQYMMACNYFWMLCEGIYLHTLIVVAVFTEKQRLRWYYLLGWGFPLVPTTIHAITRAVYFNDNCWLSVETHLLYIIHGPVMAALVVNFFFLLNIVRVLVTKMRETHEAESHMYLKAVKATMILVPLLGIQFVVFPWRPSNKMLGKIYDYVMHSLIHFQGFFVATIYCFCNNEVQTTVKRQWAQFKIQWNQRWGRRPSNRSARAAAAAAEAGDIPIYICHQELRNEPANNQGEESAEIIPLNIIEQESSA

[3] = molecular target: T3, rat amylin 3(a) receptor (rat calcitonin(a) receptor + rat RAMP3) (Rattus norvegicus, UniProt P32214+Q9JJ73); experiment: Assay (II)b functional cAMP FlashPlate assay, rat amylin receptor; assay type: cell-based; details: Table 11
T3 construct: expressed in transfected cells; host or cells: BHK tk'ts 13
T3 sequence (P32214 25-479 isoform P32214-2 limits assumed): T1 sequence (P32214 25-479 isoform P32214-2 limits assumed)
T3 sequence (Q9JJ73 23-147 partner): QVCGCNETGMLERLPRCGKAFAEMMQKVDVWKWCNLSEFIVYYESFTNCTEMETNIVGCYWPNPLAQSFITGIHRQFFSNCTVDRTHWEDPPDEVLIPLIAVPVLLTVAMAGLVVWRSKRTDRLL
Summary of the method: as §1

[4] = molecular target: T4, human amylin receptor (amylin 3(a) receptor: human calcitonin receptor + RAMP-3) (Homo sapiens, UniProt O60896+P30988); experiment: Assay (II)a functional CRE-luciferase assay, human amylin receptor; assay type: cell-based; details: Table 2; BHK amylin 3(a)-receptor/CRE-luc cells
T4 construct: expressed in transfected cells; host or cells: BHK570
T4 sequence (P30988 25-474): T2 sequence (P30988 25-474)
T4 sequence (O60896 24-148 partner): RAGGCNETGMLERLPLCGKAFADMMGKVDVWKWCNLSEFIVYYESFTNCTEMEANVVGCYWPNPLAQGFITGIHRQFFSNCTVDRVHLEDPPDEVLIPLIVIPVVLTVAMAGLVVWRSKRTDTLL

[5] = Assay (IV) determination of solubility; assay type: physicochemical
Summary of the method: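 Solubility was profiled across pH 3.0–8.0 after 18 hours at room temperature: a ~500 nmol/ml aqueous polypeptide solution was diluted 1:1 into 100 mM glycylglycine or bistrispropane buffers. After centrifugation, HPLC gave the dissolved concentration.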

[6] = bistrispropane buffer, pH 6, pH 6.0, read-out: Solubility pH 6.0
[7] = bistrispropane buffer, pH 6.5, pH 6.5, read-out: Solubility pH 6.5
[8] = bistrispropane buffer, pH 7, pH 7.0, 18 hours at room temperature, Table 3, read-out: Solubility pH 7.0
[9] = bistrispropane buffer, pH 7, pH 7.0, read-out: Solubility pH 7.0
[10] = bistrispropane buffer, pH 7.5, pH 7.5, read-out: Solubility pH 7.5
[11] = bistrispropane buffer, pH 8, pH 8.0, read-out: Solubility pH 8.0
[12] = glycylglycine buffer, pH 3, pH 3.0, read-out: Solubility pH 3.0
[13] = glycylglycine buffer, pH 4, pH 4.0, 18 hours at room temperature, Table 2, read-out: Solubility pH 4.0
[14] = glycylglycine buffer, pH 4, pH 4.0, read-out: Solubility pH 4.0
[15] = glycylglycine buffer, pH 5, pH 5.0, read-out: Solubility pH 5.0

EC50 [1] [nM]	EC50 [2] [nM]	EC50 [3] [nM]	EC50 [4] [nM]	solubility at 18 h [5, 6] [µM]	solubility at 18 h [5, 7] [µM]	solubility at 18 h [5, 8] [µM]	solubility at 18 h [5, 9] [µM]	solubility at 18 h [5, 10] [µM]	solubility at 18 h [5, 11] [µM]	solubility at 18 h [5, 12] [µM]	solubility at 18 h [5, 13] [µM]	solubility at 18 h [5, 14] [µM]	solubility at 18 h [5, 15] [µM]	solubility at 18 h ([5]; bistrispropane buffer, pH 7, pH 7.0, Table 8, read-out: Solubility pH 7.0) [µM]	solubility at 18 h ([5]; bistrispropane buffer, pH 7, pH 7.0, Table 9, read-out: Solubility pH 7.0) [µM]	solubility at 18 h ([5]; bistrispropane buffer, pH 7.5, pH 7.5, Table 9, read-out: Solubility pH 7.5) [µM]	Structure (SMILES)
2.43	0.274	0.135	0.0739	> 200	> 200	> 200	> 200	> 200	> 200	> 200	> 200	> 200	> 200	–	–	–	CC[C@H](C)[C@H](NC(=O)[C@@H]1CCCN1C(=O)CNC(=O)[C@H](Cc1ccccc1)NC(=O)[C@H](CC(N)=O)NC(=O)[C@H](CC(N)=O)NC(=O)[C@H](CO)NC(=O)[C@H](CO)NC(=O)[C@H](Cc1c[nH]cn1)NC(=O)[C@H](Cc1c[nH]cn1)NC(=O)[C@H](CC(C)C)NC(=O)[C@H](Cc1ccccc1)NC(=O)[C@H](CCC(=O)O)NC(=O)[C@H](C)NC(=O)[C@H](CC(C)C)NC(=O)[C@H](CCCNC(=N)N)NC(=O)[C@H](CCC(N)=O)NC(=O)[C@@H](NC(=O)[C@H](C)NC(=O)[C@@H]1CSSC[C@H](NC(=O)[C@H](CCCCN)NC(=O)[C@H](CCC(=O)O)NC(=O)CC[C@H](NC(=O)CCCCCCCCCCCCCCCCC(=O)O)C(=O)O)C(=O)N[C@@H](CC(N)=O)C(=O)N[C@@H]([C@@H](C)O)C(=O)N[C@@H](C)C(=O)N[C@@H]([C@@H](C)O)C(=O)N1)[C@@H](C)O)C(=O)N[C@@H](CC(C)C)C(=O)N1CCC[C@H]1C(=O)N1CCC[C@H]1C(=O)N[C@H](C(=O)N[C@@H](CC(N)=O)C(=O)N[C@H](C(=O)NCC(=O)N[C@@H](CO)C(=O)N[C@@H](CC(N)=O)C(=O)N[C@H](C(=O)N[C@@H](Cc1ccc(O)cc1)C(N)=O)[C@@H](C)O)C(C)C)[C@@H](C)O [Example 42, N-alpha-[(S)-4-Carboxy-4-(17-carboxyheptadecanoylamino)butyryl]-Glu-[Glu14,His17]-pramlintide] ({C18 diacid-γGlu}-EKCNTATCATQRLAEFLHHSSNNFGPILPPTNVGSNTY-NH2; disulfide 3-8 (inferred))
0.806	0.0864	0.374	0.0823	> 200	> 200	> 200	> 200	> 200	> 200	> 200	> 200	> 200	> 200	–	–	–	CC[C@H](C)[C@H](NC(=O)[C@@H]1CCCN1C(=O)CNC(=O)[C@H](Cc1ccccc1)NC(=O)[C@H](CC(N)=O)NC(=O)[C@H](CC(N)=O)NC(=O)[C@H](CO)NC(=O)[C@H](CO)NC(=O)[C@H](CCCNC(=N)N)NC(=O)[C@H](Cc1c[nH]cn1)NC(=O)[C@H](CC(C)C)NC(=O)[C@H](Cc1ccccc1)NC(=O)[C@H](CCC(=O)O)NC(=O)[C@H](C)NC(=O)[C@H](CC(C)C)NC(=O)[C@H](CCCNC(=N)N)NC(=O)[C@H](CCC(N)=O)NC(=O)[C@@H](NC(=O)[C@H](C)NC(=O)[C@@H]1CSSC[C@H](NC(=O)[C@H](CCC(=O)O)NC(=O)CC[C@H](NC(=O)CCCCCCCCCCCCCCCCCCC(=O)O)C(=O)O)C(=O)N[C@@H](CC(N)=O)C(=O)N[C@@H]([C@@H](C)O)C(=O)N[C@@H](C)C(=O)N[C@@H]([C@@H](C)O)C(=O)N1)[C@@H](C)O)C(=O)N[C@@H](CC(C)C)C(=O)N1CCC[C@H]1C(=O)N1CCC[C@H]1C(=O)N[C@H](C(=O)N[C@@H](CC(N)=O)C(=O)N[C@H](C(=O)NCC(=O)N[C@@H](CO)C(=O)N[C@@H](CC(N)=O)C(=O)N[C@H](C(=O)N1CCC[C@H]1C(N)=O)[C@@H](C)O)C(C)C)[C@@H](C)O [Example 10, N-alpha-[(S)-4-Carboxy-4-(19-carboxynonadecanoylamino)butyryl]-[Glu1,Glu14,His17,Arg18,Pro37]-pramlintide] ({C20 diacid-γGlu}-ECNTATCATQRLAEFLHRSSNNFGPILPPTNVGSNTP-NH2; disulfide 2-7)
2.23	0.606	0.063	0.117	> 200	> 200	> 200	> 200	> 200	> 200	> 200	> 200	> 200	> 200	> 200	> 200	> 200	CC[C@H](C)[C@H](NC(=O)[C@@H]1CCCN1C(=O)CNC(=O)[C@H](Cc1ccccc1)NC(=O)[C@H](CC(N)=O)NC(=O)[C@H](CC(N)=O)NC(=O)[C@H](CO)NC(=O)[C@H](CO)NC(=O)[C@H](Cc1c[nH]cn1)NC(=O)[C@H](CCCNC(=N)N)NC(=O)[C@H](CC(C)C)NC(=O)[C@H](Cc1ccccc1)NC(=O)[C@H](CCC(=O)O)NC(=O)[C@H](C)NC(=O)[C@H](CC(C)C)NC(=O)[C@H](CCCNC(=N)N)NC(=O)[C@H](CCC(N)=O)NC(=O)[C@@H](NC(=O)[C@H](C)NC(=O)[C@@H]1CSSC[C@H](NC(=O)[C@H](CCCCN)NC(=O)[C@H](CCC(=O)O)NC(=O)CC[C@H](NC(=O)CCCCCCCCCCCCCCCCCCC(=O)O)C(=O)O)C(=O)N[C@@H](CC(N)=O)C(=O)N[C@@H]([C@@H](C)O)C(=O)N[C@@H](C)C(=O)N[C@@H]([C@@H](C)O)C(=O)N1)[C@@H](C)O)C(=O)N[C@@H](CC(C)C)C(=O)N1CCC[C@H]1C(=O)N1CCC[C@H]1C(=O)N[C@H](C(=O)N[C@@H](CC(N)=O)C(=O)N[C@H](C(=O)NCC(=O)N[C@@H](CO)C(=O)N[C@@H](Cc1c[nH]cn1)C(=O)N[C@H](C(=O)N[C@@H](Cc1ccc(O)cc1)C(N)=O)[C@@H](C)O)C(C)C)[C@@H](C)O [Example 58, N-alpha-[(S)-4-Carboxy-4-(19-carboxynonadecanoylamino)butyryl]-Glu-[Glu14,Arg17,His35]-pramlintide] ({C20 diacid-γGlu}-EKCNTATCATQRLAEFLRHSSNNFGPILPPTNVGSHTY-NH2; disulfide 3-8 (inferred); C-terminus assumed)
